Measured values reported in patent publication US11141410B2 (MERCK SHARP & DOHME CORP., priority 2015, dated 2021).
Like-named read-outs stand apart in the source and are kept apart here.

Experiments:
MRSA COL (MB5393) [1] = experiment: TarO Inhibitor/β-Lactam Synergy Assay (growth, OD600); format: cell-based, Staphylococcus aureus; settings: for MITC95 TarO inhibitor + 4 μg/mL IPM; Bacteria: SA_MB5393: in combination with 4 μg/mL imipenem (IPM); for MITC95 TarO inhibitor + 8 μg/mL DCX; Bacteria: SA_MB5393: in combination with 8 μg/mL dicloxacillin (DCX)
How it was run: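 TarO inhibitors titrated 2-fold from 200 μM (2% DMSO) against MRSA COL, 5×10^5 CFU in CAMHB, with β-lactam fixed at clinical breakpoint (imipenem 4 μg/ml or dicloxacillin 8 μg/ml). Incubated 20 h at 37 °C without shaking; relative growth read as OD600.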

MRSA COL (MB5393) [2] = experiment: as above; format: cell-based; settings: Staphylococcus aureus, read-out: MITC95 TarO inhibitor alone, Bacteria: SA_MB5393
[3] = TarO inhibitor alone, >200 μM = 95% growth inhibition not achieved, 20 hours at 37° C.

Compound | MITC95 TarO inhibitor + 4 μg/mL IPM; Bacteria: SA_MB5393 (MRSA COL (MB5393) [1]) | MITC95 TarO inhibitor + 8 μg/mL DCX; Bacteria: SA_MB5393 (MRSA COL (MB5393) [1]) | IC95 (MRSA COL (MB5393) [2]; [3]) | IC95 (MRSA COL (MB5393) [2]; 20 h)
C[C@H]1[C@@H](c2cc(C(F)(F)F)cc(C(F)(F)F)c2)OC(=O)N1C(=O)NCC1CCCc2ccccc21 (stereo partly drawn) [Example 19, (4S,5R)-5-[3,5-bis(trifluoromethyl)phenyl]-4-methyl-2-oxo-N-(1,2,3,4-tetrahydronaphthalen-1-ylmethyl)-1,3-oxazolidine-3-carboxamide] | 0.15 µM | 1.45 µM | > 200 µM | 
C[C@H]1[C@@H](c2cc(F)cc(C(F)(F)F)c2)OC(=O)N1C(=O)NCc1ccccc1CN(C)C [Example 36, (4S,5R)-N-{2-[(dimethylamino)methyl]benzyl}-5-[3-fluoro-5-(trifluoromethyl)phenyl]-4-methyl-2-oxo-1,3-oxazolidine-3-carboxamide] | 6.25 µM | 25 µM | > 200 µM | 
C[C@H]1[C@@H](c2cc(F)cc(C(F)(F)F)c2)OC(=O)N1C(=O)CCc1cncc2ccccc12 [Example 70, (4S,5R)-5-[3-fluoro-5-(trifluoromethyl)phenyl]-3-(3-isoquinolin-4-ylpropanoyl)-4-methyl-1,3-oxazolidin-2-one] | 0.19 µM | 0.91 µM | > 200 µM | 
COc1cc([C@H]2OC(=O)N(C(=O)NCc3cncc4cccnc34)C[C@H]2C)cc(C(F)(F)F)c1 [Example 94, (5R,6S)-6-[3-methoxy-5-(trifluoromethyl)phenyl]-5-methyl-N-(1,6-naphthyridin-8-ylmethyl)-2-oxo-1,3-oxazinane-3-carboxamide] | 3.52 µM | 44 µM | > 200 µM | 
O=C(CCc1cncc2ccccc12)N1C(=O)O[C@H](c2cc(C(F)(F)F)cc(C(F)(F)F)c2)C12CC2 [Example 101, (R)-7-(3,5-bis(trifluoromethyl)phenyl)-4-(3-(isoquinolin-4-yl)propanoyl)-6-oxa-4-azaspiro[2.4]heptan-5-one] | 0.20 µM |  | > 200 µM | 
O=C(NCc1cncc2ccccc12)N1C(=O)O[C@H](c2cc(C(F)(F)F)cc(C(F)(F)F)c2)[C@@H]1CO [Example 50, (4S,5R)-5-(3,5-bis(trifluoromethyl)phenyl)-4-(hydroxymethyl)-N-(isoquinolin-4-ylmethyl)-2-oxooxazolidine-3-carboxamide] | 0.22 µM | 0.64 µM |  | > 200 µM
C[C@H]1[C@@H](c2cccc(Br)n2)OC(=O)N1C(=O)CCc1cccc2ccccc12 [Example 84, (4S,5S)-5-(6-bromopyridin-2-yl)-4-methyl-3-(3-naphthalen-1-ylpropanoyl)-1,3-oxazolidin-2-one] | 1.56 µM | 100 µM | > 200 µM | 
C[C@H]1[C@@H](c2cc(F)cc(C(F)(F)F)c2)OC(=O)N1C(=O)NCc1cncc2ccccc12 [Example 48, (4S,5R)-5-[3-fluoro-5-(trifluoromethyl)phenyl]-N-(isoquinolin-4-ylmethyl)-4-methyl-2-oxo-1,3-oxazolidine-3-carboxamide] | 0.13 µM | 0.39 µM | > 200 µM | 
COc1cccc([C@H]2OC(=O)N(C(=O)CCc3cncc4ccccc34)[C@H]2C)c1 [Example 87, (4S,5R)-3-(3-isoquinolin-4-ylpropanoyl)-5-(3-methoxyphenyl)-4-methyl-1,3-oxazolidin-2-one] | 2.08 µM | 50 µM | > 200 µM | 
C[C@H]1[C@@H](c2cc(C(F)(F)F)ccn2)OC(=O)N1C(=O)CCc1cncc2ccccc12 [Example 89, (4S,5S)-3-(3-(isoquinolin-4-yl)propanoyl)-4-methyl-5-(4-(trifluoromethyl)pyridin-2-yl)oxazolidin-2-one] | 6.25 µM | 75 µM | > 200 µM | 
C[C@H]1[C@@H](c2cc(C(F)(F)F)cc(C(F)(F)F)c2)OC(=O)N1C(=O)NCc1cccc2ccnn12 [Example 2, (4S,5R)-5-[3,5-bis(trifluoromethyl)phenyl]-4-methyl-2-oxo-N-(pyrazolo[1,5-a]pyridin-7-ylmethyl)-1,3-oxazolidine-3-carboxamide] | 0.01 µM | 0.21 µM | > 200 µM | 
C[C@H]1[C@@H](c2cc(C(F)(F)F)cc(C(F)(F)F)c2)OC(=O)N1C(=O)NCc1ncccc1Br [Example 28, (4S,5R)-5-[3,5-bis(trifluoromethyl)phenyl]-N-[(3-bromopyridin-2-yl)methyl]-4-methyl-2-oxo-1,3-oxazolidine-3-carboxamide] | 0.70 µM | 4.69 µM | > 200 µM | 
COc1cc([C@H]2OC(=O)N(C(=O)NCc3cccc4cncnc34)[C@H]2CO)cc(C(F)(F)F)c1 [Example 59, (4S,5R)-4-(hydroxymethyl)-5-[3-methoxy-5-(trifluoromethyl)phenyl]-2-oxo-N-(quinazolin-8-ylmethyl)-1,3-oxazolidine-3-carboxamide] | 1.95 µM | 10.42 µM | > 200 µM | 
CCOc1ccccc1CNC(=O)N1C(=O)O[C@H](c2cc(F)cc(C(F)(F)F)c2)[C@@H]1C [Example 13, (4S,5R)-N-(2-ethoxybenzyl)-5-[3-fluoro-5-(trifluoromethyl)phenyl]-4-methyl-2-oxo-1,3-oxazolidine-3-carboxamide] | 0.06 µM | 0.35 µM | > 200 µM | 
C[C@H]1[C@@H](c2cc(F)cc(C(F)(F)F)c2)OC(=O)N1C(=O)NCc1cnc2sccn12 [Example 47, (4S,5R)-5-[3-fluoro-5-(trifluoromethyl)phenyl]-N-(imidazo[2,1-b][1,3]thiazol-5-ylmethyl)-4-methyl-2-oxo-1,3-oxazolidine-3-carboxamide] | 62 µM | 50 µM | > 200 µM | 
COc1cc([C@H]2OC(=O)N(C(=O)NCc3cccc4nccnc34)[C@H]2CO)cc(C(F)(F)F)c1 [Example 58, (4S,5R)-4-(hydroxymethyl)-5-[3-methoxy-5-(trifluoromethyl)phenyl]-2-oxo-N-(quinoxalin-5-ylmethyl)-1,3-oxazolidine-3-carboxamide] | 1.56 µM | 6.25 µM | > 200 µM | 
COc1cc(C(F)(F)F)nc([C@@H]2OC(=O)N(C(=O)NCc3cncc4ccccc34)[C@H]2C)n1 [Example 96, (4S,5R)—N-(isoquinolin-4-ylmethyl)-5-(4-methoxy-6-(trifluoromethyl)pyrimidin-2-yl)-4-methyl-2-oxooxazolidine-3-carboxamide] | 4.17 µM | 25 µM | > 200 µM | 
